Assay results from article PMC9636434, “Discovery of small molecule agonists of the Relaxin Family Peptide Receptor 2” (Communications Biology, 2022).
Several values for one entry are separate records, joined by “and”; a condition that tells them apart may be missing. Equal entries are not always repeated.

Tests used:
human RXFP4 = biological target: T1, human RXFP4 (Homo sapiens, UniProt Q8TDU9); assay: GloSensor cAMP assay in RXFP4 transiently transfected HEK293T cells; assay type: cell-based; conditions: for RLU (cAMP, raw): RXFP4, 0.1 µM isoproterenol, replicates (1)-(4)
T1 construct: host or cells: HEK293T (transient)
T1 sequence (Q8TDU9 whole entry): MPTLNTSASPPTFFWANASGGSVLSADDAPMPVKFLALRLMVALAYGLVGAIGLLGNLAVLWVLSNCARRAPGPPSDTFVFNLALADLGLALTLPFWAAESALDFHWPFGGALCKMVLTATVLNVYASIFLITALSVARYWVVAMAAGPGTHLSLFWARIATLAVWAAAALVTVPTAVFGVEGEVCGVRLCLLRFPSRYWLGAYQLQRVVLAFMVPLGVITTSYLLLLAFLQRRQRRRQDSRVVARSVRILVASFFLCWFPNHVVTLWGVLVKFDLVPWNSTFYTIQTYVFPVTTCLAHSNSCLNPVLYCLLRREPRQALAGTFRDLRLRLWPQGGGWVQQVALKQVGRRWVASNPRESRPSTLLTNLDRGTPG

human ADORA1 = biological target: T2, human ADORA1 (Homo sapiens, UniProt P30542); assay: GloSensor cAMP inhibition assay in ADORA1 transiently transfected HEK293T cells; assay type: cell-based; conditions: for RLU: replicates (1)-(4)
T2 sequence (P30542 1-326): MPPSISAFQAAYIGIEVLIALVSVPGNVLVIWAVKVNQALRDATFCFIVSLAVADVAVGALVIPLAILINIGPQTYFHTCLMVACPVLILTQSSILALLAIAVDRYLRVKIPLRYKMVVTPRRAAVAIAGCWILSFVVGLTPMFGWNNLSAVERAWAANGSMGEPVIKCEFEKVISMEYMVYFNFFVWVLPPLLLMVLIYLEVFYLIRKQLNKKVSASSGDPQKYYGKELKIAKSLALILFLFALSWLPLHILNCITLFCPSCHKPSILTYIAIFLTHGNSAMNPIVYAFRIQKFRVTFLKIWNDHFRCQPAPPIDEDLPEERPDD
Method: β-arrestin is an important GPCR adaptor protein that mediates several receptor processes including signaling, desensitization, and trafficking. […] GPCR-mediated β-arrestin recruitment for a panel of 320 human GPCRs was studied in transiently transfected HTLA cells treated with 10 µM compound. The results for all 320 GPCRs tested are summarized in Supplementary Data 1. […] ADORA1 activation by an agonist results in Gαi protein binding, an inhibition of adenylate cyclase and, therefore, a decrease in the cAMP concentration.
Experiments to analyze the cAMP response in RXFP3, RXFP4, and ADORA1 transiently transfected HEK293T cells was performed in the National Institute of Mental Health’s Psychoactive Drug Screening Program, Contract #HHSN-271-2018-00023-C (NIMH PDSP).
ADORA1 activation. cAMP in HEK293T cells transiently transfected with human
ADORA1 was induced by treatment with 0.1 µM of isoproterenol. cAMP inhibition is
Results are reported as raw
RLU values and represent the mean ± SEM of 4 technical replicates.
(1 picture or pasted object on this page, not shown here)

HCO cells = assay: CellTiter-Glo cytotoxicity assay in HCO cells; assay type: cell-based, human; conditions: experiments (1)-(3)
Text: Fig. 4 RXFP2 agonists induce mineralization of primary human osteoblasts and are non-cytotoxic. a Mineral hydroxyapatite fluorescent quantification after 14-day treatment in HCO cells. Results were normalized to control DMSO as 100% mineralization. b HCO and c HAVSMC toxicity after 24-h treatment with RXFP2 agonists, normalized to DMSO treatment as 0% toxicity. Results are expressed as mean ± SEM of 3 independent experiments. *p < 0.05, *** p < 0.001 vs. DMSO using One-way ANOVA.
Cell viability studies were undertaken to identify potential cytotoxic effects of the RXFP2 agonists. HCO cells and human aortic vascular smooth muscle cells (HAVSMC) were treated for 24 h. […] At 8.3 µM and below, no toxicity was found in HCO cells and toxicity was below 20% in HAVSMC cells for all three compounds (Fig. 4b, c).
The ATP CellTiter-Glo Luminescent Cell Viability Assay (Promega, Madison, WI) was used to measure cytotoxicity induced by the compounds in HCO cells and human aortic vascular smooth muscle cells (HAVSMC) (ATCC, Manassas, VA). HCO and HAVSMC cells were seeded in 96-well plates at 3000 and 7000 cells per well respectively. Cells were incubated overnight, treated with compound or DMSO vehicle and incubated for 24 h at 37 °C, 5% CO2. […] Plates were shaken for 2 min, incubated at room temperature for 10 min and the luminescent signal was read on a CLARIOstar plate reader.

trabecular bone of femur = assay: Micro-CT of trabecular bone in femur after 8-week oral treatment; assay type: in vivo, mouse; set-up: Mat.D / Tb.N / Tb.Th / Tb.Sp / Conn.D: unit not given here
[1] = cAMP induced by 0.1 µM isoproterenol
[2] = femur trabecular bone, 8-week oral treatment, individual mice

Compound: O=C1Nc2ccc(-c3cc(C(F)(F)F)cc(C(F)(F)F)c3)cc2C(=O)N2CCN(C(=O)COc3ccc(OC(F)(F)F)cc3I)C[C@@H]12 [compound 6641]
- RLU (cAMP, raw) (human RXFP4; Log [M] -4.52): 2463.26 RLU and 2323.36 RLU and 2574.77 RLU and 2436.25 RLU
- RLU (cAMP, raw) (human RXFP4; Log [M] -5): 3185.64 RLU and 3376.11 RLU and 2670.35 RLU and 2223.62 RLU
- RLU (cAMP, raw) (human RXFP4; Log [M] -5.52): 2765.92 RLU and 2530.44 RLU and 2513.13 RLU and 2428.63 RLU
- RLU (cAMP, raw) (human RXFP4; Log [M] -6): 3247.28 RLU and 3052.66 RLU and 2557.45 RLU and 2549.14 RLU
- RLU (cAMP, raw) (human RXFP4; Log [M] -6.52): 2853.88 RLU and 2734.06 RLU and 2619.79 RLU and 2767.31 RLU
- RLU (cAMP, raw) (human RXFP4; Log [M] -7): 2986.17 RLU and 3107.38 RLU and 2961.24 RLU and 2947.39 RLU
- RLU (cAMP, raw) (human RXFP4; Log [M] -7.52): 3270.14 RLU and 3165.55 RLU and 2781.16 RLU and 2887.13 RLU
- RLU (cAMP, raw) (human RXFP4; Log [M] -8): 3594.97 RLU and 2898.21 RLU and 2737.53 RLU and 2621.17 RLU
- RLU (cAMP, raw) (human RXFP4; Log [M] -8.52): 2962.83 RLU and 3046.77 RLU and 3010.47 RLU and 2788.15 RLU
- RLU (cAMP, raw) (human RXFP4; Log [M] -9): 3689.54 RLU and 3613.16 RLU and 3120.12 RLU and 2641.44 RLU
- RLU (cAMP, raw) (human RXFP4; Log [M] -9.52): 3253.97 RLU and 3351.52 RLU and 2965.85 RLU and 3151.88 RLU
- RLU (cAMP, raw) (human RXFP4; Log [M] -10): 3784.82 RLU and 3051.3 RLU and 3541.33 RLU and 3042.99 RLU
- RLU (cAMP, raw) (human RXFP4; Log [M] -10.52): 2937.88 RLU and 2859.99 RLU and 3018.03 RLU and 2959.05 RLU
- RLU (cAMP, raw) (human RXFP4; Log [M] -11): 3244.89 RLU and 3354.54 RLU and 2788.9 RLU and 3100.46 RLU
- RLU (cAMP, raw) (human RXFP4; Log [M] -11.52): 3393.86 RLU and 2984 RLU and 2869.06 RLU and 2844.86 RLU
- RLU (cAMP, raw) (human RXFP4; Log [M] -12): 3689.54 RLU and 3235.82 RLU and 3343.96 RLU and 2573.39 RLU
- activation of RXFP4 (cAMP inhibition) (human RXFP4; [1]): does not activate
- RLU (human ADORA1; Log [M] -5): 501.695 RLU and 432.184 RLU and 479.802 RLU
- RLU (human ADORA1; Log [M] -5.52): 440.941 RLU and 426.71 RLU and 354.463 RLU and 361.031 RLU
- RLU (human ADORA1; Log [M] -6): 417.406 RLU and 427.258 RLU and 437.11 RLU and 429.447 RLU
- RLU (human ADORA1; Log [M] -6.52): 436.015 RLU and 453.53 RLU and 363.767 RLU and 397.155 RLU
- RLU (human ADORA1; Log [M] -7): 393.323 RLU and 486.917 RLU and 461.192 RLU and 440.394 RLU
- RLU (human ADORA1; Log [M] -7.52): 405.912 RLU and 426.71 RLU and 325.454 RLU and 420.142 RLU
- RLU (human ADORA1; Log [M] -8): 517.02 RLU and 436.015 RLU and 373.619 RLU and 451.34 RLU
- RLU (human ADORA1; Log [M] -8.52): 377.126 RLU and 431.072 RLU and 331.699 RLU and 385.644 RLU
- RLU (human ADORA1; Log [M] -9): 420.424 RLU and 419.005 RLU and 360.091 RLU and 409.777 RLU
- RLU (human ADORA1; Log [M] -9.52): 407.648 RLU and 406.938 RLU and 409.777 RLU and 342.346 RLU
- cAMP inhibition in ADORA1-HEK293T transfected cells (human ADORA1; [1]): failed to detect any significant changes
- % Tox (HCO cells; Log [M] -6.03, 24 h): -11.63% and -7.45% and -4.96%
- % Tox (HCO cells; Log [M] -6.51, 24 h): -9.76% and -5.09% and -6.71%
- femur trabecular parameters (micro-CT) (trabecular bone of femur; 10 mg/kg PO 3 times per week, 8 weeks): no changes
- BV/TV (%) (trabecular bone of femur; [2]): 4.31% and 3.06% and 3.16% and 4.83% and 2.23% and 3.75% and 3.15% and 4.04% and 1.79% and 1.82% and 3.85% and 4.53% and 2.18% and 3.86% and 3.36%
- Conn.D (trabecular bone of femur; [2]): 30.1255 and 5.8494 and 15.74 and 19.1725 and 7.6938 and 27.3442 and 18.8338 and 25.1693 and 0 and -0.6363 and 15.6001 and 25.2137 and 3.3792 and 27.5856 and 14.5139
- Mat.D (trabecular bone of femur; [2]): 834.454 and 848.06 and 875.94 and 870.004 and 796.836 and 823.449 and 732.807 and 765.822 and 734.474 and 726.404 and 778.428 and 781.83 and 731.073 and 806.374 and 872.538
- Tb.N (trabecular bone of femur; [2]): 3.0955 and 3.1972 and 2.9789 and 2.9022 and 2.8329 and 3.2718 and 2.9757 and 3.3227 and 2.8446 and 3.0319 and 3.0922 and 3.1695 and 2.9848 and 3.092 and 2.9537
- Tb.Sp (trabecular bone of femur; [2]): 0.3236 and 0.3094 and 0.3391 and 0.3456 and 0.3545 and 0.3064 and 0.3348 and 0.3029 and 0.3454 and 0.3314 and 0.3266 and 0.317 and 0.3334 and 0.3226 and 0.3354
- Tb.Th (trabecular bone of femur; [2]): 0.0422 and 0.0404 and 0.0416 and 0.0484 and 0.033 and 0.037 and 0.035 and 0.0363 and 0.0299 and 0.0308 and 0.0384 and 0.0447 and 0.0326 and 0.0382 and 0.0437
